pIC50: −log10 of the molar value.
System: MCF7
Assay: Antiproliferative activity against human MCF7 cells after 72 hrs by MTT assay
Assay type: functional, cell-based
Conditions: MCF7, 72 h

pIC50	SMILES
4.59	O=C(c1c[nH]c2ccccc12)C(NCc1ccc2c(c1)OCO2)c1ccccc1 (centres undefined)
5.00	CCC(c1nnc(SCC(=O)c2[nH]c(C)c(C(C)=O)c2C)n1Cc1ccccc1)N(C)C (centres undefined)
4.27	Cc1cc(C)c(O)c(-c2n[nH]c3c2C(c2ccccc2)N(CCCO)C3=O)c1 (centres undefined)
4.60	Cc1cccc(-n2nc(C)c3c2NC2=C(C(=O)CC(C)(C)C2)C3c2ccc(O)cc2)c1 (centres undefined)
4.18	CC(=O)Nc1ccc(C2=CC(c3ccc(Cl)cc3Cl)n3nc(CCCO)nc3N2)cc1 (centres undefined)
4.18	O=C(CSc1nnc(-c2c[nH]c3ccccc23)n1CC1CCCO1)c1ccc(Cl)s1 (centres undefined)
4.49	C=CCOc1ccccc1CN(C(=O)CN1CCNC(=O)C1)c1ccc2c(c1)OCO2
4.64	COc1ccc(NS(=O)(=O)c2ccc3c(c2)N(C(C)=O)CC(C)O3)cc1Cl (centres undefined)
4.49	CCOC(=O)c1c(C)[nH]c(C)c1C(=O)CSC1=Nc2ccccc2C2CC=NN12 (centres undefined)
5.15	COc1ccc(C)cc1NC(=O)c1cnn2c(C(F)F)cc(-c3ccc(C)cc3)nc12
4.43	Cn1cc(SCC(=O)N2N=C(c3cccs3)CC2c2ccc(F)cc2)c2ccccc21 (centres undefined)
4.03	CCOc1ccc(-n2c(SCC(=O)N3CCOCC3)nnc2-c2cccc(C)c2)cc1
5.05	CCOC(=O)c1c(NC(=O)C2CC(=O)Nc3ccccc32)sc(C)c1C (centres undefined)
5.05	COc1ccc(-n2c(SCC(=O)c3ccc(OC(F)F)cc3)nc3ccccc32)cc1
4.59	CCOC(=O)c1c(NC(=O)C2=C(C)N=C(S)NC2c2ccc(CC)cc2)sc(C)c1C (centres undefined)
4.18	Cc1cccc(-n2ccnc2SCC(=O)c2ccc3c(c2)CCC(=O)N3)c1

System: HepG2
Assay: Antiproliferative activity against human HepG2 cells after 72 hrs by MTT assay
Assay type: functional, cell-based
Conditions: HepG2, 72 h

pIC50	SMILES
4.49	O=C(c1c[nH]c2ccccc12)C(NCc1ccc2c(c1)OCO2)c1ccccc1 (centres undefined)
4.01	CCC(c1nnc(SCC(=O)c2[nH]c(C)c(C(C)=O)c2C)n1Cc1ccccc1)N(C)C (centres undefined)
4.31	Cc1cc(C)c(O)c(-c2n[nH]c3c2C(c2ccccc2)N(CCCO)C3=O)c1 (centres undefined)
< 4.00	Cc1cccc(-n2nc(C)c3c2NC2=C(C(=O)CC(C)(C)C2)C3c2ccc(O)cc2)c1 (centres undefined)
4.13	CC(=O)Nc1ccc(C2=CC(c3ccc(Cl)cc3Cl)n3nc(CCCO)nc3N2)cc1 (centres undefined)
4.10	O=C(CSc1nnc(-c2c[nH]c3ccccc23)n1CC1CCCO1)c1ccc(Cl)s1 (centres undefined)
< 4.00	C=CCOc1ccccc1CN(C(=O)CN1CCNC(=O)C1)c1ccc2c(c1)OCO2
4.11	COc1ccc(NS(=O)(=O)c2ccc3c(c2)N(C(C)=O)CC(C)O3)cc1Cl (centres undefined)
4.85	CCOC(=O)c1c(C)[nH]c(C)c1C(=O)CSC1=Nc2ccccc2C2CC=NN12 (centres undefined)
< 4.00	COc1ccc(C)cc1NC(=O)c1cnn2c(C(F)F)cc(-c3ccc(C)cc3)nc12
< 4.00	Cn1cc(SCC(=O)N2N=C(c3cccs3)CC2c2ccc(F)cc2)c2ccccc21 (centres undefined)
< 4.00	CCOc1ccc(-n2c(SCC(=O)N3CCOCC3)nnc2-c2cccc(C)c2)cc1
< 4.00	CCOC(=O)c1c(NC(=O)C2CC(=O)Nc3ccccc32)sc(C)c1C (centres undefined)
4.19	COc1ccc(-n2c(SCC(=O)c3ccc(OC(F)F)cc3)nc3ccccc32)cc1
< 4.00	CCOC(=O)c1c(NC(=O)C2=C(C)N=C(S)NC2c2ccc(CC)cc2)sc(C)c1C (centres undefined)
4.04	Cc1cccc(-n2ccnc2SCC(=O)c2ccc3c(c2)CCC(=O)N3)c1

System: HeLa
Assay: Antiproliferative activity against human HeLa cells after 72 hrs by MTT assay
Assay type: functional, cell-based
Conditions: not given

pIC50	SMILES
4.65	O=C(c1c[nH]c2ccccc12)C(NCc1ccc2c(c1)OCO2)c1ccccc1 (centres undefined)
4.13	CCC(c1nnc(SCC(=O)c2[nH]c(C)c(C(C)=O)c2C)n1Cc1ccccc1)N(C)C (centres undefined)
4.30	Cc1cc(C)c(O)c(-c2n[nH]c3c2C(c2ccccc2)N(CCCO)C3=O)c1 (centres undefined)
4.97	Cc1cccc(-n2nc(C)c3c2NC2=C(C(=O)CC(C)(C)C2)C3c2ccc(O)cc2)c1 (centres undefined)
4.20	CC(=O)Nc1ccc(C2=CC(c3ccc(Cl)cc3Cl)n3nc(CCCO)nc3N2)cc1 (centres undefined)
4.34	O=C(CSc1nnc(-c2c[nH]c3ccccc23)n1CC1CCCO1)c1ccc(Cl)s1 (centres undefined)
4.18	C=CCOc1ccccc1CN(C(=O)CN1CCNC(=O)C1)c1ccc2c(c1)OCO2
4.34	COc1ccc(NS(=O)(=O)c2ccc3c(c2)N(C(C)=O)CC(C)O3)cc1Cl (centres undefined)
4.20	CCOC(=O)c1c(C)[nH]c(C)c1C(=O)CSC1=Nc2ccccc2C2CC=NN12 (centres undefined)
4.82	COc1ccc(C)cc1NC(=O)c1cnn2c(C(F)F)cc(-c3ccc(C)cc3)nc12
4.36	Cn1cc(SCC(=O)N2N=C(c3cccs3)CC2c2ccc(F)cc2)c2ccccc21 (centres undefined)
4.21	CCOc1ccc(-n2c(SCC(=O)N3CCOCC3)nnc2-c2cccc(C)c2)cc1
< 4.00	CCOC(=O)c1c(NC(=O)C2CC(=O)Nc3ccccc32)sc(C)c1C (centres undefined)
4.43	COc1ccc(-n2c(SCC(=O)c3ccc(OC(F)F)cc3)nc3ccccc32)cc1
4.44	CCOC(=O)c1c(NC(=O)C2=C(C)N=C(S)NC2c2ccc(CC)cc2)sc(C)c1C (centres undefined)
4.09	Cc1cccc(-n2ccnc2SCC(=O)c2ccc3c(c2)CCC(=O)N3)c1

System: SH-SY5Y
Assay: Antiproliferative activity against human SH-SY5Y cells after 72 hrs by MTT assay
Assay type: functional, cell-based
Conditions: not given

pIC50	SMILES
4.76	O=C(c1c[nH]c2ccccc12)C(NCc1ccc2c(c1)OCO2)c1ccccc1 (centres undefined)
4.43	CCC(c1nnc(SCC(=O)c2[nH]c(C)c(C(C)=O)c2C)n1Cc1ccccc1)N(C)C (centres undefined)
4.29	Cc1cc(C)c(O)c(-c2n[nH]c3c2C(c2ccccc2)N(CCCO)C3=O)c1 (centres undefined)
4.15	Cc1cccc(-n2nc(C)c3c2NC2=C(C(=O)CC(C)(C)C2)C3c2ccc(O)cc2)c1 (centres undefined)
4.21	CC(=O)Nc1ccc(C2=CC(c3ccc(Cl)cc3Cl)n3nc(CCCO)nc3N2)cc1 (centres undefined)
4.46	O=C(CSc1nnc(-c2c[nH]c3ccccc23)n1CC1CCCO1)c1ccc(Cl)s1 (centres undefined)
< 4.00	C=CCOc1ccccc1CN(C(=O)CN1CCNC(=O)C1)c1ccc2c(c1)OCO2
< 4.00	COc1ccc(NS(=O)(=O)c2ccc3c(c2)N(C(C)=O)CC(C)O3)cc1Cl (centres undefined)
5.43	CCOC(=O)c1c(C)[nH]c(C)c1C(=O)CSC1=Nc2ccccc2C2CC=NN12 (centres undefined)
4.17	COc1ccc(C)cc1NC(=O)c1cnn2c(C(F)F)cc(-c3ccc(C)cc3)nc12
4.93	Cn1cc(SCC(=O)N2N=C(c3cccs3)CC2c2ccc(F)cc2)c2ccccc21 (centres undefined)
< 4.00	CCOc1ccc(-n2c(SCC(=O)N3CCOCC3)nnc2-c2cccc(C)c2)cc1
4.17	CCOC(=O)c1c(NC(=O)C2CC(=O)Nc3ccccc32)sc(C)c1C (centres undefined)
4.28	COc1ccc(-n2c(SCC(=O)c3ccc(OC(F)F)cc3)nc3ccccc32)cc1
< 4.00	CCOC(=O)c1c(NC(=O)C2=C(C)N=C(S)NC2c2ccc(CC)cc2)sc(C)c1C (centres undefined)
4.17	Cc1cccc(-n2ccnc2SCC(=O)c2ccc3c(c2)CCC(=O)N3)c1

Species: Sus scrofa
Assay: Inhibition of tubulin polymerization in porcine brain assessed as disruption of microtubule organization after 1 hr by fluorescence polarization assay
Conditions: not given

inhibition	SMILES
Dose-dependent effect	O=C(c1c[nH]c2ccccc12)C(NCc1ccc2c(c1)OCO2)c1ccccc1 (centres undefined)
Dose-dependent effect	CCC(c1nnc(SCC(=O)c2[nH]c(C)c(C(C)=O)c2C)n1Cc1ccccc1)N(C)C (centres undefined)
Dose-dependent effect	Cc1cc(C)c(O)c(-c2n[nH]c3c2C(c2ccccc2)N(CCCO)C3=O)c1 (centres undefined)
Dose-dependent effect	Cc1cccc(-n2nc(C)c3c2NC2=C(C(=O)CC(C)(C)C2)C3c2ccc(O)cc2)c1 (centres undefined)
Dose-dependent effect	CC(=O)Nc1ccc(C2=CC(c3ccc(Cl)cc3Cl)n3nc(CCCO)nc3N2)cc1 (centres undefined)
Dose-dependent effect	O=C(CSc1nnc(-c2c[nH]c3ccccc23)n1CC1CCCO1)c1ccc(Cl)s1 (centres undefined)
Dose-dependent effect	C=CCOc1ccccc1CN(C(=O)CN1CCNC(=O)C1)c1ccc2c(c1)OCO2
Dose-dependent effect	COc1ccc(NS(=O)(=O)c2ccc3c(c2)N(C(C)=O)CC(C)O3)cc1Cl (centres undefined)
Dose-dependent effect	CCOC(=O)c1c(C)[nH]c(C)c1C(=O)CSC1=Nc2ccccc2C2CC=NN12 (centres undefined)
Dose-dependent effect	COc1ccc(C)cc1NC(=O)c1cnn2c(C(F)F)cc(-c3ccc(C)cc3)nc12
Dose-dependent effect	Cn1cc(SCC(=O)N2N=C(c3cccs3)CC2c2ccc(F)cc2)c2ccccc21 (centres undefined)
Dose-dependent effect	CCOc1ccc(-n2c(SCC(=O)N3CCOCC3)nnc2-c2cccc(C)c2)cc1
Dose-dependent effect	CCOC(=O)c1c(NC(=O)C2CC(=O)Nc3ccccc32)sc(C)c1C (centres undefined)
Dose-dependent effect	COc1ccc(-n2c(SCC(=O)c3ccc(OC(F)F)cc3)nc3ccccc32)cc1
Dose-dependent effect	CCOC(=O)c1c(NC(=O)C2=C(C)N=C(S)NC2c2ccc(CC)cc2)sc(C)c1C (centres undefined)
Dose-dependent effect	Cc1cccc(-n2ccnc2SCC(=O)c2ccc3c(c2)CCC(=O)N3)c1

System: not listed separately
Assay: Apparent permeability from apical to basolateral side in MDCK2-MDR1 cells at 75 uM after 2 hrs UV-visible spectroscopy
Assay type: ADME, cell-based, Canis lupus familiaris
Conditions: dog, MDCK-MDR1

Papp A→B at 2 h, 75 µM [nm/s]	SMILES
900	O=C(c1c[nH]c2ccccc12)C(NCc1ccc2c(c1)OCO2)c1ccccc1 (centres undefined)
760	CCOC(=O)c1c(C)[nH]c(C)c1C(=O)CSC1=Nc2ccccc2C2CC=NN12 (centres undefined)
390	Cn1cc(SCC(=O)N2N=C(c3cccs3)CC2c2ccc(F)cc2)c2ccccc21 (centres undefined)

System: not listed separately
Assay: Apparent permeability from basolateral to apical side in MDCK2-MDR1 cells at 75 uM after 2 hrs UV-visible spectroscopy
Assay type: ADME, cell-based, Canis lupus familiaris
Conditions: dog, MDCK-MDR1

Papp B→A at 2 h, 75 µM [nm/s]	SMILES
920	O=C(c1c[nH]c2ccccc12)C(NCc1ccc2c(c1)OCO2)c1ccccc1 (centres undefined)
470	CCOC(=O)c1c(C)[nH]c(C)c1C(=O)CSC1=Nc2ccccc2C2CC=NN12 (centres undefined)
470	Cn1cc(SCC(=O)N2N=C(c3cccs3)CC2c2ccc(F)cc2)c2ccccc21 (centres undefined)

System: not listed separately
Assay: Efflux ratio of apparent permeability from basolateral to apical over apical to basolateral side in MDCK2-MDR1 cells at 75 uM after 2 hrs by UV-visible spectroscopy
Assay type: ADME, cell-based, Canis lupus familiaris
Conditions: dog, MDCK-MDR1

efflux ratio at 2 h, 75 µM	SMILES
1.02	O=C(c1c[nH]c2ccccc12)C(NCc1ccc2c(c1)OCO2)c1ccccc1 (centres undefined)
0.62	CCOC(=O)c1c(C)[nH]c(C)c1C(=O)CSC1=Nc2ccccc2C2CC=NN12 (centres undefined)
1.2	Cn1cc(SCC(=O)N2N=C(c3cccs3)CC2c2ccc(F)cc2)c2ccccc21 (centres undefined)

Reference: ChEMBL document CHEMBL4130419, “Novel chemotypes targeting tubulin at the colchicine binding site and unbiasing P-glycoprotein” (Eur J Med Chem, 2017)
